Where no end group is shown, it is not given here. [ ]: non-standard residue; d: D form. Hyp = O=C(O)[C@@H]1C[C@@H](O)CN1
Experiments:
HIV-1IIIB = assay: HIV-1 antiviral assay in CEM-SS cells (MTS readout); settings: positive controls
[1] = test system: Human Peripheral Blood Mononuclear Cells (PBMC), B cell proliferation; assay: B cell proliferation assay (SAC plus Interleukin-2 stimulated PBMC, 3H-thymidine); format: cell-based; settings: 10 micrograms per ml; SAC plus IL-2 stimulated PBMC
Description: Human Peripheral Blood Mononuclear Cells (PBMC) were obtained from normal human donors. The B cell proliferation was induced by stimulation of the cells with the B cell mitogen Staphylococcus aureus Cowans I (SAC) plus Interleukin-2, either in the absence (positive proliferation control), or in the presence of test peptides—10 micrograms per ml—to examine their effects on the B cell response. 10^5/well PBMC were plated in 96-well microtiter plates and assayed in duplicate with the peptides. Cell cultures were incubated at 37° C. for 3 days in a 5% CO2 incubator and were thereafter pulsed with 1 microCi/well ^3H-thymidine for additional 12 hours of culture. At the end of incubation time, the plates were harvested and the cells counted by liquid scintillation for the incorporation of ^3H-thymidine as a measure of B cell proliferation.

Interleukin-4 (IL-4) = assay: Th1/Th2 cytokine profiling assay, IL-4; format: cell-based, mouse; settings: 10 micrograms per ml; Ovalbumin-restimulated Balb/c spleen cells, 72 hours
Excerpt: (§1) The Balb/c mice (originated in 1923, it is a popular strain and is used in many different research disciplines. Also classified as an inbred from the production of 20 or more successive brother-sister matings, the Balb/c mouse is albino and small in size) were immunized on Days 1, 15, and 29 with Ovalbumin (Ovalbumin is the main protein found in egg white, commonly used to stimulate an immunological reaction in test animals) in PBS (5 micrograms/injection). On day 50, spleens of the mice were harvested (3 weeks after last boost with Ovalbumin). […] Thereafter, additional Ovalbumin was added to the cells at 10 micrograms/ml for in vitro restimulation of the cells. 72 hours later, cell supernatants were harvested and assayed using the Becton Dickinson Mouse Th1/Th2 Cytokine CBA Kit. This kit can be used to measure Interleukin-2 (IL-2), Interleukin-4 (IL-4), Interleukin-5 (IL-5), Interferon-γ (IFN-γ), and Tumor Necrosis Factor-α (TNF-α) protein levels in a single sample. The kit performance has been optimized for analysis of physiologically relevant concentrations ([…] levels) of specific cytokine proteins in tissue culture supernatants and serum samples.

Interferon-γ (IFN-γ) = assay: Th1/Th2 cytokine profiling assay, IFN-γ; format: cell-based, mouse; settings: 10 micrograms per ml; Ovalbumin-restimulated Balb/c spleen cells, 72 hours
Excerpt: as §1

[2] = test system: Primary Human endothelial cells (HUVEC); assay: Endothelial cell migration assay; format: cell-based; settings: 10 micrograms per ml, 22 hours
Description: Endothelial cell migration is a prerequisite for the process of neo-vascularization or angiogenesis which is crucial for on-site recruitment of blood vessel formation. Primary Human endothelial cells (HUVEC) were seeded in insert chambers with 3 micrometer pore size of multi-transwell plate for 6 hours at 37° C. in Endothelial Cell Basal Medium (EBM) supplemented with 0.1% bovine serum albumin. Thereafter, designated concentration of testing peptides—10 micrograms per ml—was added in duplicate wells. The endothelia were allowed to migrate for 22 hours at 37° C., then, migrated cells were fixed and stained with Hoechst 33342 dye. Images of 3 fields per insert were taken and the number of migrated cells per field were quantified using the ImageProPlus software. Data were analyzed for the average number of the migrated cells and standard deviation of six data points for each treatment condition. Active test peptides against HUVEC migration was determined based on 50% inhibition of migrated cells as compared with the control. Statistic p values were computed using the Student's t-test.

Interleukin-2 (IL-2) = assay: Th1/Th2 cytokine profiling assay, IL-2; format: cell-based, mouse; settings: 10 micrograms per ml; Ovalbumin-restimulated Balb/c spleen cells, 72 hours
Excerpt: as §1

[3] = test system: hepatitis B virus (HBV) ayw strain; assay: HBV experimental assay system, secreted HBV DNA by TaqMan PCR in HepG2-2.2.15; format: cell-based; settings: 10 micrograms per ml, HepG2-2.2.15, 6 days
[4] = test system: Tumor Necrosis Factor-α (TNF-α); assay: Th1/Th2 cytokine profiling assay, TNF-α; format: cell-based, mouse; settings: 10 micrograms per ml; Ovalbumin-restimulated Balb/c spleen cells, 72 hours
Excerpt: as §1

HCMV strain AD169 = assay: HCMV plaque formation assay in MRC-5 cells; settings: for inhibition of HCMV plaque formation compared to virus control: 10 micrograms per ml, 7-10 days
HUVEC = assay: Endothelial tube formation assay; format: cell-based, human; settings: 10 micrograms per ml, 20 hours
Description: The endothelial tube formation assay is based on the ability of endothelial cells to form three-dimensional capillary-like tubular structures when cultured on a gel of basement membrane extract. The endothelial tube formation assay represents a powerful model for studying inhibition and induction of angiogenesis. Pre-labeled HUVEC with Calcein AM were seeded in a 96-well culture plate coated with extracellular metrix (Chemicon international Cat. ECM625) and treated with test peptides—10 micrograms per ml—in full growth medium. Positive control was vehicle only. The endothelial cells were allowed to form tubes foe 20 hours and were then examined under an inverted fluorescent microscope. Duplicate wells for each treatment were photographed and quantitatively analyzed for an average tubule length using image analysis software ImageProPlus. Raw data were expressed as average tubule lengths in pixels ±standard deviation. Statistic p values were computed using the Student's t-test.

Interleukin-5 (IL-5) = assay: Th1/Th2 cytokine profiling assay, IL-5; format: cell-based, mouse; settings: 10 micrograms per ml; Ovalbumin-restimulated Balb/c spleen cells, 72 hours
Excerpt: as §1

| Molecule | antiviral activity of positive control compounds (HIV-1IIIB) | decrease of the proliferation of specifically stimulated human B-cells [1] [%] | IL-4 spleen cells; TH2 response (% of control) (Interleukin-4 (IL-4)) | IFNγ spleen cells; TH1 response (% of control) (Interferon-γ (IFN-γ)) | inhibition of the migration of human endothelial cells [2] [%] | IL-2 spleen cells (% of control) (Interleukin-2 (IL-2)) | inhibition of HBV replication on tested liver cells [3] | TNF-a spleen cells; TH1 response (% of control) [4] | inhibition of HCMV plaque formation compared to virus control (HCMV strain AD169) | inhibition of the tube formation of human endothelial cells (HUVEC) | IL-5 spleen cells; TH2 response (% of control) (Interleukin-5 (IL-5)) | antiviral activity of positive control compound (HCMV strain AD169; positive control, HCMV AD169) |
| --- | --- | --- | --- | --- | --- | --- | --- | --- | --- | --- | --- | --- |
| CC(C)(C)NC(=O)[C@@H]1CN(Cc2cccnc2)CCN1C[C@@H](O)C[C@@H](Cc1ccccc1)C(=O)N[C@H]1c2ccccc2C[C@H]1O [indinavir] | expected levels of antiviral activity |  |  |  |  |  |  |  |  |  |  |  |
| PS[Hyp]GDW-OH [peptide 1] |  | 20.9 | 0.0 % of control | 63.7 % of control | 39 | 117.9 % of control | no effect | 96.0 % of control | did not inhibit | did not inhibit | 65.5 % of control |  |
| Nc1nc(O)c2ncn(COC(CO)CO)c2n1 [Ganciclovir, reference compound] |  |  |  |  |  |  |  |  |  |  |  | expected levels of antiviral activity |
| Cc1cn([C@H]2C[C@H](N=[N+]=[N-])[C@@H](CO)O2)c(=O)[nH]c1=O [AZT] | expected levels of antiviral activity |  |  |  |  |  |  |  |  |  |  |  |
| Tyr-Gly-Gly-Phe-Met-Thr-Ser-Glu-Lys-Ser-Gln-Thr-Pro-Leu-Val-Thr-OH (YGGFMTSEKSQTPLVT-OH) [peptide 2, Alpha-Endorphin] |  | 12.0 | 0.0 % of control | 68.6 % of control | 31 | 0.0 % of control | no effect | 93.1 % of control | did not inhibit | did not inhibit | 53.0 % of control |  |
